Assay [1] has as its system superoxide dismutase (SOD). In words: Superoxide dismutase (SOD) activity in treated bacterial cell lysates. The format is cell-based. The settings on record: Staphylococcus aureus ATCC25923 and MRSA03, MIC and 1/2xMIC, 24 h. The protocol: (§1) (3) Antioxidant Enzyme Activities. For evaluation of catalase and superoxide dismutase (SOD) activities, Staphylococcus aureus ATCC25923 and MRSA03 (1.5 × 10^8 CFU/mL, 500 μL) cultures from the late exponential growth phase were treated with MIC and 1/2xMIC of the methanol extract (500 μL), compound 5 (500 μL), and oxacillin (500 μL) solutions and incubated at 37°C for 24 h. The suspension was centrifuged at 3000 rpm for 5 min to separate the supernatant. The pellet was washed twice with PBS and resuspended in 500 μL of cell lysate buffer (1 mM EDTA, 10 Mm Tris-HCl, 0.1% Triton-X-100, and 150 mM NaCl) and incubated at 37°C for 1 h. Contents were then centrifuged at 3000 rpm for 5 min, and the supernatant was collected for enzyme activity assays.
Superoxide dismutase (SOD) activity. This was determined using a kit (Sigma, catalogue no. 19160) in the cell lysate. […] The reaction mixture was incubated in the dark at 37°C for 20 min, and the absorbance was read at 450 nm on a BioTek Synergy 2 multiplate reader. The SOD activity was calculated based on the following formula: [(ABlank1–ABlank3) − (ASample–ABlank2)/(ABlank1–ABlank3) × 100], where Blank 1 contains ultrapure water, WST solution, and enzyme solution, Blank 2 contains sample solution, WST solution, and dilution buffer, and Blank 3 contains ultrapure water, WST solution, and dilution buffer.

In the next assay the test system is catalase. The experiment in a line: Catalase activity in treated bacterial cell lysates. Type of assay: cell-based. As to conditions: Staphylococcus aureus ATCC25923 and MRSA03, MIC and 1/2xMIC, 24 h. The protocol: as §1
Catalase activity. This was assessed by using a kit (Sigma, catalogue no. CAT100) with a cell lysate. Briefly, 750 μL of assay buffer (50 mM) was mixed with 25 μL of 50 mM H2O2 and 10 μL of cell lysate. […] The absorbance was monitored at 520 nm, and the catalase activity was calculated based on the following equation: [Δμ moles (H2O2) × d × 100)/V × t], where Δμ moles (H2O2) is the difference in amount of H2O2 added to the reaction mixture between blank and given samples, d is the dilution of the original sample for catalase reaction, V is the sample volume in catalase reaction, and t is the reaction duration (min).

In assay [2] the test system is tested bacteria and yeasts. The experiment in a line: Broth microdilution MIC/MMC, summary over all strains. Type of assay: cell-based. As to conditions: against specific microorganism; cutoff points of ref 33. In short, it runs like this: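 Twofold broth microdilution in MHB (bacteria) or SDB (yeasts), final range 2048–0.125 μg/mL. Inocula were 1 × 10^6 CFU/mL for bacteria, incubated at 37 °C for 24 h with shaking, and 1 × 10^5 spores/mL for yeasts (C. albicans 30 °C 48 h; C. neoformans 30 °C 72 h). MIC was the lowest concentration with no visible growth, in triplicate.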

Assay [3] in a line: DPPH free radical scavenging assay. As to conditions: mean ± SD. The protocol: The free radical scavenging activity of extracts and compounds was evaluated according to the described method. The EC50 (μg/mL), which is the amount of sample necessary to inhibit by 50% the absorbance of free radical DPPH, was calculated. Vitamin C was used as a standard control. All the analyses were carried out in triplicate and repeated three times.
For orientation: Loss of DPPH colour is used to gauge radical scavenging.

The values that follow come from PMC8556085, “Antimicrobial and Antioxidant Secondary Metabolites from Trifolium baccarinii Chiov. (Fabaceae) and Their Mechanisms of Antibacterial Action” (BioMed Research International, 2021).

Marks after values point to notes of the source that are not given here.

As for “4,7,2′-trihydroxy-4′-methoxyisoflavanol [compound 5]”, the “SOD activity vs untreated cell lysates” value in assay [1] is listed as “significant concentration-dependent decreases”. Moreover, the “catalase activity vs untreated cell lysates” value in the assay with catalase is given as “significant concentration-dependent decreases”. Also, in assay [2], the “antimicrobial activity class of pure compounds by cutoff points” value is “significant/moderate”. In addition, the “DPPH free radical scavenging activity (EC50)” value in assay [3] was 11.58 ± 0.73^f μg/mL.
